The experiment deals with transition cows. Description: Blood non-esterified fatty acid (NEFA) concentrations in transition cows. The format is in vivo, cow. The note with it: 0.5 mg/kg every other day from targeted day -7 pre partum and at calving, days 1–8, p<0.10, with the exception of day 5 (p=0.17). As to the method:
Determination of Chances in Blood Non-esterified Fatty Acid (NEFA) Concentrations and Liver Triglycerides Levels:
Compounds are administered once or several times in the transition period at dose levels predicted to be effective by comparing results of in-vitro receptor affinity tests in laboratory species and pharmacokinetic evaluations in cattle. NEFA levels are determined via standard laboratory methods, for example, using the commercial WAKO NEFA kit (Wako Chemical Co., USA, Dallas, Tex., 994-75409), and liver triglyceride content is determined using the method as described in the literature (J. K. Drackley, J. J. Veenhuizen, M. J. Richard and J. W. Young, J Dairy Sci, 1991, 74, 4254)).
All animals may be obtained from a commercial dairy farm approximately thirty days prior to anticipated calving date. […]
As soon as possible post-calving (˜30 minutes) the cow is transferred to the freestall barn for the next scheduled milking (6:00 hrs and 19:00 hrs). […] Pre and post-calving NEFA samples are analyzed using the WAKO NEFA-C test kit (#994-75409). […] Tissues are transported on ice and stored frozen at −70° F. At the conclusion of the study, samples are analysed of liver triglyceride levels using the method described by Drackley, J. K. et al. (1991, J Dairy Sci (74):4254–4264).

The structures appear in SMILES notation.

`Cc1ccc(S(=O)(=O)Nc2ccc(-c3ccc(OC(F)(F)F)cc3)cc2)cc1C(=O)O` [Example T02, 2-Methyl-5-(4′-trifluoromethoxy-biphenyl-4-ylsulfamoyl)-benzoic acid]: the “serum NEFA levels as compared to control” value is given as “significantly lower”.

(Values after patent US7262318B2, “Substituted heteroaryl- and phenylsulfamoyl compounds” (Pfizer, Inc., priority 2004, dated 2007).)
